# Assay results published in ChEMBL document CHEMBL1649156, “Antianaerobic activity of sulopenem compared to six other agents” (2009).
# Experiments:
# Assay type in all cases: functional
# [1] = tested on: Finegoldia magna; test: Antimicrobial activity in Finegoldia magna by CLSI agar dilution method in presence of Tazobactam
# [2] = tested on: Prevotella melaninogenica; test: Antimicrobial activity in Prevotella melaninogenica by CLSI agar dilution method in presence of Tazobactam
# [3] = tested on: Prevotella baroniae; test: Antimicrobial activity in Prevotella baroniae by CLSI agar dilution method in presence of Tazobactam; details: Segatella baroniae
# [4] = tested on: Clostridioides difficile; test: Antimicrobial activity in Clostridium difficile by CLSI agar dilution method in presence of Tazobactam
# [5] = tested on: Prevotella veroralis; test: Antimicrobial activity in Prevotella veroralis by CLSI agar dilution method in presence of Tazobactam
# [6] = tested on: Porphyromonas gingivalis; test: Antimicrobial activity in Porphyromonas gingivalis by CLSI agar dilution method in presence of Tazobactam
# [7] = tested on: Thomasclavelia ramosa; test: Antimicrobial activity in Clostridium ramosum by CLSI agar dilution method in presence of Tazobactam
# [8] = tested on: Clostridium perfringens; test: Antimicrobial activity in Clostridium perfringens by CLSI agar dilution method in presence of Tazobactam
# [9] = tested on: Hoylesella oralis; test: Antimicrobial activity in Prevotella oralis group by CLSI agar dilution method in presence of Tazobactam
# [10] = tested on: Phocaeicola vulgatus; test: Antimicrobial activity in Bacteroides vulgatus by CLSI agar dilution method in presence of Tazobactam
# [11] = tested on: Porphyromonas asaccharolytica; test: Antimicrobial activity in Porphyromonas asaccharolytica by CLSI agar dilution method in presence of Tazobactam
# [12] = tested on: Peptoniphilus asaccharolyticus; test: Antimicrobial activity in Peptoniphilus asaccharolyticus by CLSI agar dilution method in presence of Tazobactam
# [13] = tested on: Paeniclostridium sordellii; test: Antimicrobial activity in Clostridium sordellii by CLSI agar dilution method in presence of Tazobactam; details: Paraclostridium sordellii
# [14] = tested on: Prevotella buccae; test: Antimicrobial activity in Prevotella buccae by CLSI agar dilution method in presence of Tazobactam; details: Segatella buccae
# [15] = tested on: Paraclostridium bifermentans; test: Antimicrobial activity in Clostridium bifermentans by CLSI agar dilution method in presence of Tazobactam
# [16] = tested on: Eggerthella lenta; test: Antimicrobial activity in Eggerthella lenta by CLSI agar dilution method in presence of Tazobactam
# [17] = tested on: Fusobacterium nucleatum; test: Antimicrobial activity in Fusobacterium nucleatum by CLSI agar dilution method in presence of Tazobactam
# [18] = tested on: Anaerococcus prevotii; test: Antimicrobial activity in Anaerococcus prevotii by CLSI agar dilution method in presence of Tazobactam
# [19] = tested on: Prevotella corporis; test: Antimicrobial activity in Prevotella corporis by CLSI agar dilution method in presence of Tazobactam
# [20] = tested on: Clostridium tertium; test: Antimicrobial activity in Clostridium tertium by CLSI agar dilution method in presence of Tazobactam
# [21] = tested on: Prevotella bivia; test: Antimicrobial activity in Prevotella bivia by CLSI agar dilution method in presence of Tazobactam
# [22] = tested on: Clostridium sp.; test: Antimicrobial activity in Clostridium sp. by CLSI agar dilution method in presence of Tazobactam
# [23] = tested on: Bacteroides thetaiotaomicron; test: Antimicrobial activity in Bacteroides thetaiotaomicron by CLSI agar dilution method in presence of Tazobactam
# [24] = tested on: Parvimonas micra; test: Antimicrobial activity in Micromonas micros by CLSI agar dilution method in presence of Tazobactam
# [25] = tested on: Bacteroides ovatus; test: Antimicrobial activity in Bacteroides ovatus by CLSI agar dilution method in presence of Tazobactam
# [26] = tested on: Lactobacillus; test: Antimicrobial activity in Lactobacillus by CLSI agar dilution method in presence of Tazobactam
compound,measurement,setting,value
CCN1CCN(C(=O)N[C@@H](C(=O)N[C@@H]2C(=O)N3[C@@H]2SC(C)(C)[C@@H]3C(=O)O)c2ccccc2)C(=O)C1=O [PIPERACILLIN],MIC50,[1],≤ 0.125 µg/mL
same,MIC90,[1],0.25 µg/mL
same,MIC,[2],≤ 0.125 µg/mL
same,MIC50,[2],≤ 0.125 µg/mL
same,MIC90,[2],≤ 0.125 µg/mL
same,MIC,[3],≤ 0.125 µg/mL
same,MIC,[4],8 µg/mL
same,MIC50,[4],8 µg/mL
same,MIC90,[4],16 µg/mL
same,MIC,[5],≤ 0.125 µg/mL
same,MIC,[6],≤ 0.125 µg/mL
same,MIC,[7],≤ 0.125 µg/mL
same,MIC,[8],≤ 0.125 µg/mL
same,MIC50,[8],≤ 0.125 µg/mL
same,MIC90,[8],0.5 µg/mL
same,MIC,[9],≤ 0.125 µg/mL
same,MIC50,[10],2 µg/mL
same,MIC90,[10],16 µg/mL
same,MIC,[11],≤ 0.125 µg/mL
same,MIC,[12],≤ 0.125 µg/mL
same,MIC50,[12],≤ 0.125 µg/mL
same,MIC,[13],≤ 0.125 µg/mL
same,MIC,[14],≤ 0.125 µg/mL
same,MIC50,[14],≤ 0.125 µg/mL
same,MIC90,[14],≤ 0.125 µg/mL
same,MIC,[15],0.5 µg/mL
same,MIC50,[16],16 µg/mL
same,MIC90,[16],16 µg/mL
same,MIC,[17],≤ 0.125 µg/mL
same,MIC50,[17],≤ 0.125 µg/mL
same,MIC90,[17],≤ 0.125 µg/mL
same,MIC,[18],≤ 0.125 µg/mL
same,MIC,[19],≤ 0.125 µg/mL
same,MIC50,[19],≤ 0.125 µg/mL
same,MIC,[20],4 µg/mL
same,MIC50,[20],8 µg/mL
same,MIC,[21],≤ 0.125 µg/mL
same,MIC50,[21],≤ 0.125 µg/mL
same,MIC90,[21],≤ 0.125 µg/mL
same,MIC50,[22],1 µg/mL
same,MIC90,[22],2 µg/mL
same,MIC50,[23],8 µg/mL
same,MIC90,[23],16 µg/mL
same,MIC,[24],≤ 0.125 µg/mL
same,MIC50,[24],≤ 0.125 µg/mL
same,MIC90,[24],≤ 0.125 µg/mL
same,MIC50,[25],2 µg/mL
same,MIC90,[25],4 µg/mL
same,MIC50,[26],2 µg/mL
same,MIC90,[26],2 µg/mL
